In article PMC5365648, “Pharmacokinetics of the Novel Echinocandin CD101 in Multiple Animal Species” (Antimicrobial Agents and Chemotherapy, 2017):
Where two headings read alike, the source gives them in different places. Starred links: 1 amine or outer side, 2 acyl side, 3 side chain; linkers in the order of their positions; H or OH if unused. Positions of bridges follow the written chain, without caps; N, C: chain ends. Non-standard residues stand in square brackets, D forms with d. Residues, ends and D or L forms follow the SMILES beside them. *: point of attachment. Orn(4R-OH,5R-OCH2CH2NMe3+) = C[N+](C)(C)CCO[C@@H](N[*:3])[C@H](O)C[C@H](N[*:1])C(=O)[*:2]; pTerphenylCO(4''-OnC5H11) = CCCCCOc1ccc(-c2ccc(-c3ccc(C(=O)*)cc3)cc2)cc1; hTyr(3S-OH,4S-OH) = N[C@H](C(=O)O)[C@H](O)[C@@H](O)c1ccc(O)cc1; Pro(3S-OH,4S-Me) = C[C@H]1CN[C@H](C(=O)O)[C@H]1O; Hyp = O=C(O)[C@@H]1C[C@@H](O)CN1

Assays:
[1] = Rat tissue distribution after i.v. bolus; assay type: in vivo, Sprague-Dawley rats; conditions: for Kp: rat, iv
Protocol: In one of three rat studies reported here, a single 5-, 15-, or 45-mg/kg dose of CD101 was administered by slow i.v. bolus (∼3 min) to Sprague-Dawley rats (n = 3 to 5/dose). Blood samples (via jugular vein catheter [JVC]) were drawn for plasma processing at 0.083, 0.25, 0.5, 1, 2, 4, 8, 24, 48, 120, 168, and 240 h after dosing. In the second rat study, conducted to assess tissue distribution, a single 5-mg/kg dose of CD101 was administered by slow i.v. bolus (∼3 min) to male Sprague-Dawley rats (n = 3 animals/time point). Blood samples (via cardiac puncture) were collected for plasma processing predose and at 0.083, 0.5, 1, 2, 4, 8, 24, 48, 72, 96, and 120 h postdose. In parallel with blood collection, animals were euthanized, and tissues (liver, lungs, kidneys, heart, spleen, and brain) were excised and frozen prior to analysis. In the third rat study, conducted to assess excretion, a single 5-mg/kg dose of CD101 was administered by slow i.v. bolus (∼3 min) to bile duct-cannulated male Sprague-Dawley rats (n = 3). Bile samples were collected from each animal into prelabeled bile collection tubes predose and at 0 to 8, 8 to 24, 24 to 48, 48 to 72, 72 to 96, and 96 to 120 h postdose; urine samples were collected from each animal at the same time points pre- and postdose.
(§1) For each of the pharmacokinetic studies, whole-blood samples (K3EDTA as anticoagulant) were collected and centrifuged within 30 min of collection. The resulting plasma was harvested and stored at −20°C until analysis. Tissue samples were homogenized by a bead-based homogenizer following the addition of deionized water to excised tissue in a 2:1 (vol/wt) ratio and stored at −20°C until analysis. Prior to analysis, plasma or homogenized tissue samples were quenched with acetonitrile (3:1, acetonitrile-plasma or tissue ratio) containing an appropriate internal standard (isotopically labeled d9-CD101 [mouse and rat] or a structural analog [dog, monkey, and chimpanzee]). Plasma and tissue homogenate concentrations (quantified against calibration standards processed the same way) were determined by reverse-phase, gradient liquid chromatography with tandem mass spectrometric detection (LC-MS/MS) using an AB-SCIEX API 3200Q/4000 mass spectrometry system. Calibration standard ranges were the following: 0.400 (lower limit of quantitation, [LLOQ]) to 200 μg/ml (CD101, mouse), 0.040 (LLOQ) to 10 μg/ml (anidulafungin, mouse), 0.002 (LLOQ) to 10 μg/ml (CD101, rat), 0.005 (LLOQ) to 10 μg/ml (anidulafungin, rat), 0.050 (LLOQ) to 10 μg/ml (CD101, dog), 0.020 (LLOQ) to 10 μg/ml (anidulafungin, dog), 0.010 (LLOQ) to 10 μg/ml (CD101, monkey), 0.001 (LLOQ) to 10 μg/ml (anidulafungin, monkey), 0.015 (LLOQ) to 10 μg/ml (CD101, chimpanzee), and 0.015 (LLOQ) to 10 μg/ml (anidulafungin, chimpanzee). When necessary, dilutions with blank matrix were made for samples that quantified above the upper limit of quantitation. The methods used in the analysis were qualified as fit for purpose: calibration standards were matrix matched with the exception that human plasma calibration standards were used to analyze chimpanzee plasma samples due to the rarity of blank chimpanzee plasma, and, for each analytical batch, triplicate calibration standards were included at the beginning, approximately in the middle, and at the end of the batch. Following analysis, quantitation was carried out by a calibration curve comprising the analyte/internal standard area ratio versus concentration. Analytical batch acceptance followed the general guidance that triplicate standards/quality controls be within ±20% for accuracy (percentage of nominal concentration) and ≤20% for precision (percent coefficient of variation).
(§2) Pharmacokinetic parameters were calculated by noncompartmental analysis using Phoenix WinNonlin (version 6.3; Pharsight, Mountain View, CA) from either individual or mean (mouse) concentration-time profiles. An unpaired t test was used to compare mean exposures from male and female rats.

[2] = Mouse pharmacokinetics, i.p. injection; conditions: in vivo, ip, female ICR (CD-1) mice, plasma, LC-MS/MS, noncompartmental from mean profile, n = 3/time point
Protocol: A single 1-mg/kg dose of CD101 or anidulafungin was administered by slow i.v. bolus (∼2 min) to male ICR (CD-1) mice (n = 3/group/time point). Blood samples (via cardiac puncture) were collected for plasma processing predose and at 0.083 (5 min), 0.5, 1, 4, 8, 24, 48, and 72 h postdose. PK profiles were generated based on mean results from the three animals sampled at each time point. In another study, a single 1-, 4-, or 16-mg/kg dose of CD101 was administered by i.p. injection to female ICR (CD-1) mice (n = 3/time point/dose), and blood samples (via cardiac puncture) were drawn for plasma processing at 1, 3, 6, 12, 24, 48, 72, and 96 h postdose.
as §1, §2

[3] = male Sprague-Dawley rats, single 5 mg/kg i.v. bolus
[4] = male Sprague-Dawley rats, single 5 mg/kg i.v. bolus, t = 120 h, LC-MS/MS, n = 3/time point

## CCCCCOc1ccc(-c2ccc(-c3ccc(C(=O)N[C@H]4C[C@@H](O)[C@@H](OCC[N+](C)(C)C)NC(=O)[C@@H]5[C@@H](O)[C@@H](C)CN5C(=O)[C@H]([C@@H](C)O)NC(=O)[C@H]([C@H](O)[C@@H](O)c5ccc(O)cc5)NC(=O)[C@@H]5C[C@@H](O)CN5C(=O)[C@H]([C@@H](C)O)NC4=O)cc3)cc2)cc1 [CD101] ({pTerphenylCO(4''-OnC5H11)}-[Orn(4R-OH,5R-OCH2CH2NMe3+)]T[Hyp][hTyr(3S-OH,4S-OH)]T[Pro(3S-OH,4S-Me)]; lactam 1-C)
[1]; [3]
  Tmax in brain tissue: 48 h
  Tmax in heart tissue: 8 h
  time of maximum concentration in plasma and tissues except heart and brain (first sampling time): 5 min
[1]; [4]
  Mean AUC0–t in brain tissue: 145 µg·h/g
  Mean AUC0–t in kidney tissue: 1,100 μg · hr/g
[1]; male, Sprague-Dawley, kidney, lung, liver, spleen / plasma, rats, 5 mg/kg i.v., read-out: Tissue/plasma AUC ratio, fold higher in major organs (kidney, lung, liver, spleen) than in plasma
  Kp: 4 to 5
[1]; brain / plasma, male Sprague-Dawley rats, single 5 mg/kg i.v. bolus, t = 120 h, tissue homogenate, LC-MS/MS, n = 3/time point, read-out: Tissue/plasma AUC0–t ratio, brain
  Kp: 0.609
[1]; heart / plasma, male Sprague-Dawley rats, single 5 mg/kg i.v. bolus, t = 120 h, tissue homogenate, LC-MS/MS, n = 3/time point, read-out: Tissue/plasma AUC0–t ratio, heart
  Kp: 1.09
[1]; kidney, male Sprague-Dawley rats, single 5 mg/kg i.v. bolus, t = 120 h, tissue homogenate, LC-MS/MS, n = 3/time point, read-out: Tissue/plasma AUC0–t ratio, kidney
  Kp: 4.62
[1]; liver, male Sprague-Dawley rats, single 5 mg/kg i.v. bolus, t = 120 h, tissue homogenate, LC-MS/MS, n = 3/time point, read-out: Tissue/plasma AUC0–t ratio, liver
  Kp: 4.14
[1]; lung, male Sprague-Dawley rats, single 5 mg/kg i.v. bolus, t = 120 h, tissue homogenate, LC-MS/MS, n = 3/time point, read-out: Tissue/plasma AUC0–t ratio, lung
  Kp: 4.33
[1]; spleen / plasma, male Sprague-Dawley rats, single 5 mg/kg i.v. bolus, t = 120 h, tissue homogenate, LC-MS/MS, n = 3/time point, read-out: Tissue/plasma AUC0–t ratio, spleen
  Kp: 3.87
[2]; single 1 mg/kg i.p.
  AUC(0-inf): 88.9 µg·h/mL
  AUC(0-t): 59.6 µg·h/mL
  Cmax: 3.97 µg/mL
  Tmax: 1 h
  half-life: 71.1 h
[2]; single 4 mg/kg i.p.
  AUC(0-inf): 313 µg·h/mL
  AUC(0-t): 245 µg·h/mL
  Cmax: 13.6 µg/mL
  Tmax: 1 h
  half-life: 44.5 h
[2]; single 16 mg/kg i.p.
  AUC(0-inf): 1200 µg·h/mL
  AUC(0-t): 902 µg·h/mL
  Cmax: 52 µg/mL
  Tmax: 1.67 h
  half-life: 60.8 h
